The source of these data is patent publication US20060222617A1, “Water-soluble cosmetic composition and method for manufacturing the same” (Taiyen Biotech. Co. Ltd., priority 2005, published 2006).

The structures appear in SMILES notation. Like-named read-outs stand apart in the source and are kept apart here.

How the values of this data set were obtained:
A lyophilizated product solubility test and a stability test are conducted to compare the cosmetic composition of the present invention with the start materials of the cosmetic composition.

As for `O=C1O[C@H]([C@@H](O)CO)C([O-])=C1OP(=O)([O-])[O-].O=C1O[C@H]([C@@H](O)CO)C([O-])=C1OP(=O)([O-])[O-].[Mg+2].[Mg+2].[Mg+2]` [Magnesium ascorbyl phosphate, magnesium ascorbyl phosphate], the Solubility is recorded as 2 wt % (after processing the cosmetic composition (lyophilized with water-soluble collagen, rehydrated with the amount of water removed)) and 0.5 wt % (start materials of the cosmetic composition (without processing)).
